Source: article PMC8409943, “Study on mechanism of low bioavailability of black tea theaflavins by using Caco-2 cell monolayer” (Drug Delivery, 2021)
Like-named read-outs stand apart in the source and are kept apart here.

Key:
Caco-2 cell monolayers = assay: Transepithelial transport of theaflavins across Caco-2 cell monolayers, with or without efflux transporter inhibitors; assay type: in vitro ADME, Human
Protocol: (§1) For transport studies, Caco-2 cells were seeded at a density of 3 × 10^5 cells per well in Transwell® inserts (polycarbonate membrane, 24 mm i.d., 0.4 μm pore size, Corning Costar Corp., NY, USA) in 6-well plates (Zhang et al., [2004]). […] The inserts were washed twice with HBSS buffer and equilibrated at 37 °C for 30 min. Standard stock solutions of each theaflavin were diluted to 200 μM with HBSS. For absorptive transport, theaflavins in 1.5 mL HBSS was added into the AP side and 2.6 mL HBSS was added into the BL side of all inserts. For secretory transport, 1.5 mL HBSS and 2.6 mL theaflavins in HBSS were added into AP side and BL side, respectively. Samples were collected from the receiving chamber after 0.5, 1, 2, 3, or 4 h incubation and then were lyophilized at −110 °C in a CoolSafe freeze dryer (LaboGene ApS, Bjarkesvej, Denmark) for HPLC analysis. The recovery rate of theaflavins in the transport was calculated from the above Equation (2).
(§2) Prior to transport inhibition experiment, cells were preincubated for 30 min with 100 μM Vep, 100 μM CsA, 100 μM MK-571, or 10 μM FTC in both sides (Vaidyanathan & Walle, [2001]; Wang et al., [2008]). Then, the absorptive and secretory experiments were performed in the presence of inhibitors as described above. Samples were collected from the receiving chamber after 2 h incubation and then were lyophilized at −110 °C for HPLC analysis.
(§3) The apparent permeability coefficient (Papp, cm/s) was calculated as follows: (3) Papp= dQ/dt×V/(A×C0) where dQ/dt is the variation in concentration on the receiving side over time (μM/s); V, the volume of the solution collected from the receiving chamber (cm^3); A, the area of the membrane (4.67 cm^2); C0, the initial concentration of theaflavins in the donor chamber (μM).
(§4) The efflux ratio was calculated as follows: (4) Efflux ratio= Papp(BL−AP)/Papp(AP−BL) where Papp, apparent permeability coefficient; AP-BL, apical to basolateral transport; BL-AP, basolateral to apical transport.

[1] = as above; assay type: in vitro ADME, Human; conditions: human; for recovery at 2 h, 200 μM: Caco-2, Caco-2 monolayers, after 2 h incubation; for efflux ratio at 2 h, 200 μM / Papp A→B at 2 h, 200 μM / Papp B→A at 2 h, 200 μM: 2 h incubation
Protocol: as §1, §2, §3, §4

[2] = Stability (recovery rate) of theaflavins in HBSS and DMEM in the absence of cells; conditions: 2 h
Protocol: Standard stock solutions of each theaflavin were diluted with HBSS and DMEM respectively, obtaining final test solutions of 200 μM. The recovery rate of theaflavins in HBSS and in DMEM, in the absence of cells, was analyzed by HPLC after incubation at 37 °C for 0.5, 1, 2, 3, 4, 8, 12, and 24 hours, respectively. The recovery rate was used to measure the stability and calculated as follows: (2) Recovery rate=Ct/C0× 100% where Ct is the final concentration at different incubation time (μM); C0, the initial concentration (μM).
Theaflavins were characterized by high performance liquid chromatography (HPLC, Agilent 1100VL, Agilent Technologies Inc., CA, USA). Briefly, samples were extracted with 70% methanol, centrifuged at 685 × g for 10 min, and filtered through a 0.45 μm membrane (Nylon 66). The separation was performed by an ODS reversed-phase column (4.6 mm i.d.×250 mm, SB-C18, Agilent Technologies Inc., CA, USA) at a flow rate of 0.7 mL/min. Chromatographic conditions were slightly modified according to China National Standard (GB/T 30483-2013, GAQSIQ, P. R. China, 2013). Samples were eluted with a gradient of solvent A (100 mL water with 9 mL acetonitrile and 2 mL acetic acid) and B (100 mL acetonitrile with 17.8 mL water and 2 mL acetic acid) as follows: 0–5 min, 95% A; 5–10 min, 90% A; 10–20 min, 70% A; 20–25 min, 65% A; 25–30 min, 70% A; 30–35 min, 100% A. Theaflavins were detected using an ultraviolet detector at a wavelength of 278 nm.

Caco-2 monolayers = assay: HPLC-MS/MS identification of metabolites in the absorptive transport of Caco-2 monolayers; assay type: in vitro ADME, Human; conditions: 200 µM, 2 h; for conjugated metabolites (glucuronidated, sulfated and methylated): AP side or BL side of Caco-2 monolayers; for metabolites identified: absorptive transport, AP side and BL side
Protocol: TF3G, TF3’G and TFDG were dissolved in DMSO (≤0.5%), and then, diluted with HBSS. Caco-2 cells were incubated with 200 µM TF3G, TF3’G and TFDG at 37 °C for 2 h. Samples collected from both AP side and BL side were measured by HPLC with MS detection, and the metabolites were determined in terms of the standard TF, TF3G, TF3’G, TFDG, and gallic acid (Table S2).

MRP1 = assay: Western blot, protein level of MRP1; assay type: cell-based, Human; conditions: Caco-2 cells, 200 μM, 2 h, normalized to β-actin, vs control
Protocol: (§5) Cell lysates were prepared with RIPA lysis buffer. […] Cell protein (50 μg) was loaded onto SDS polyacrylamide gel (5% stacking gel; 8% separating gel) and separated by electrophoresis for 1.5 h at 20 mA. Next, the separated proteins were transferred onto the PVDF membrane in ice bath for 1.5 h at 120 mA, followed by blocking the membrane with 5% nonfat milk in Tris-buffered saline containing 0.1% Tween-20 (TBST) for 1 h at room temperature. After blocking, the blots were incubated overnight at 4 °C with the primary antibody of P-gp, MRP1, MRP2, MRP3, BCRP (1:200) or β-actin (1:40,000), followed by washing with TBST and incubation for 1 h at room temperature with HRP-conjugated goat anti-rabbit (1:3,000). Immunoreactive proteins were visualized by the ECL detection system, band intensity was quantified by Image Lab (Bio-Rad, CA, USA), and the protein contents were normalized to β-actin.

BCRP = assay: Western blot, protein level of BCRP; assay type: cell-based, Human; conditions: Caco-2 cells, 200 μM, 2 h, normalized to β-actin, vs control
Protocol: as §5

Caco-2 cells = assay: Cytotoxicity study by CCK-8 method; assay type: cell-based, Human; conditions: 24 h
Protocol: Standard stock solutions (1000 μM) of each theaflavin were prepared in 0.1% dimethyl sulfoxide (DMSO) in deionized water, and diluted with fresh DMEM to 100, 200, 300, 400, and 500 µmol/L respectively. Each inhibitor was prepared as instructions. The cytotoxicity of theaflavins and four inhibitors of multidrug resistant associated proteins to Caco-2 cells was examined by CCK-8 method (Song et al., [2014]). Briefly, Caco-2 cells were inoculated onto 96-well microtiter plates at a density of 1 × 10^4 cells per well. After incubation at 37 °C for 24 h, cells were incubated for another 24 h with different concentrations of theaflavins, followed by adding 10 μL CCK-8 solution and 1 h incubation at 37 °C. The absorbance (OD) value was determined at 450 nm using a microplate reader (ELX-800, Bio-Tek Instruments Inc., Winooski, USA). Four inhibitors were used in this study: Vep, inhibitor of P-gp; CsA, inhibitor and substrate of P-gp; MK-571, inhibitor of MRP1, MRP2 and MRP3; FTC, inhibitor of BCRP (Silbermann et al., [1989]; König et al., [1999]; Renes et al., [1999]; Ali et al., [2017]). The cytotoxicity of Vep, CsA, MK-571 or FTC was also determined by CCK-8 assay. […] To determine the effects of inhibitors on the cytotoxicity of theaflavins, cells were incubated with both different theaflavin monomers (100, 200, 300, 400, and 500 μM) and different inhibitors. IC50, the half inhibitory concentration, was calculated from the cell viability. The cell viability was calculated by the following equation: (1) Cell viability (%)=(ODsample− ODblank)/(ODcontrol− ODblank)×100% where ODsample is the absorbance value of cell + sample + complete medium; ODblank, the absorbance value of complete medium; ODcontrol, the absorbance value of cell + complete medium.

[3] = apical to basolateral, read-out: recovery of theaflavins in absorptive transport
[4] = basolateral to apical, read-out: recovery of theaflavins in secretory transport
[5] = Caco-2, Papp(BL−AP)/Papp(AP−BL), Ctrl (no inhibitor)
[6] = Caco-2, absorptive transport, 200 μM theaflavin in HBSS, Ctrl (no inhibitor)
[7] = Caco-2, secretory transport, 200 μM theaflavin in HBSS, Ctrl (no inhibitor)
[8] = Caco-2, with 10 μM FTC (BCRP inhibitor), + 10 μM FTC (BCRP inhibitor)
[9] = Caco-2, with 10 μM FTC (BCRP inhibitor), absorptive transport, + 10 μM FTC (BCRP inhibitor)
[10] = Caco-2, with 10 μM FTC (BCRP inhibitor), secretory transport, + 10 μM FTC (BCRP inhibitor)
[11] = Caco-2, with 100 μM CsA (P-gp inhibitor and substrate), + 100 μM CsA (P-gp inhibitor and substrate)
[12] = Caco-2, with 100 μM CsA (P-gp inhibitor and substrate), absorptive transport, + 100 μM CsA (P-gp inhibitor and substrate)
[13] = Caco-2, with 100 μM CsA (P-gp inhibitor and substrate), secretory transport, + 100 μM CsA (P-gp inhibitor and substrate)
[14] = Caco-2, with 100 μM Vep (P-gp inhibitor), + 100 μM Vep (P-gp inhibitor)
[15] = Caco-2, with 100 μM Vep (P-gp inhibitor), absorptive transport, + 100 μM Vep (P-gp inhibitor)
[16] = Caco-2, with 100 μM Vep (P-gp inhibitor), secretory transport, + 100 μM Vep (P-gp inhibitor)
[17] = Homo sapiens, Ctrl (no inhibitor)

Compound	recovery at 2 h, 200 μM [1, 3] [%]	recovery at 2 h, 200 μM [1, 4] [%]	efflux ratio at 2 h, 200 μM [1, 5]	Papp A→B at 2 h, 200 μM [1, 6] [×10⁻⁶ cm/s]	Papp B→A at 2 h, 200 μM [1, 7] [×10⁻⁶ cm/s]	efflux ratio at 2 h, 200 μM [1, 8]	Papp A→B at 2 h, 200 μM [1, 9] [×10⁻⁶ cm/s]	Papp B→A at 2 h, 200 μM [1, 10] [×10⁻⁶ cm/s]	efflux ratio at 2 h, 200 μM [1, 11]	Papp A→B at 2 h, 200 μM [1, 12] [×10⁻⁶ cm/s]	Papp B→A at 2 h, 200 μM [1, 13] [×10⁻⁶ cm/s]	efflux ratio at 2 h, 200 μM [1, 14]	Papp A→B at 2 h, 200 μM [1, 15] [×10⁻⁶ cm/s]	Papp B→A at 2 h, 200 μM [1, 16] [×10⁻⁶ cm/s]	conjugated metabolites (glucuronidated, sulfated and methylated) (Caco-2 monolayers)	metabolites identified (Caco-2 monolayers)	increase of protein level of MRP1 (MRP1)	increase of protein level of BCRP (BCRP)	IC50 (Caco-2 cells; + CsA) [µM]	IC50 (Caco-2 cells; + FTC) [µM]	further results
O=C(O[C@@H]1Cc2c(O)cc(O)cc2O[C@@H]1c1cc(O)c(=O)c2c(O)c(O)cc([C@H]3Oc4cc(O)cc(O)c4C[C@H]3O)c2c1)c1cc(O)c(O)c(O)c1 [TF3G, theaflavin-3-gallate]	44.2	47.6	1.58 ± 0.3	0.107 ± 0.004	0.168 ± 0.03	1.41 ± 0.27	0.109 ± 0.004	0.153 ± 0.027	1.13 ± 0.22	0.13 ± 0.005	0.146 ± 0.026	0.86 ± 0.16	0.203 ± 0.008	0.173 ± 0.031	not detected	GA and TF	58.36%	115.78%	446 ± 30.1	508 ± 15.9	fold increase in the influx (Caco-2 cell monolayers; absorptive transport, with verapamil vs control, 2 h): 1.90 fold; transport amount, absorptive transport (peak) (Caco-2 cell monolayers; apical to basolateral, 200 μM, at 3 h): 1.30 ± 0.08 nmol; transport amount, secretory transport (peak) (Caco-2 cell monolayers; basolateral to apical, 200 μM, at 3 h): 3.59 ± 0.36 nmol; degraded due to the structural instability [2]: 24.6%; IC50 (Caco-2 cells; + MK-571): 585 ± 78.7 µM; IC50 (Caco-2 cells; + VEP): 454 ± 13.2 µM; IC50 (Caco-2 cells; [17]): 641 ± 7.8 µM
O=C(O[C@@H]1Cc2c(O)cc(O)cc2O[C@@H]1c1cc(O)c(=O)c2c(O)c(O)cc([C@H]3Oc4cc(O)cc(O)c4C[C@H]3OC(=O)c3cc(O)c(O)c(O)c3)c2c1)c1cc(O)c(O)c(O)c1 [TFDG, theaflavin-3, 3’-digallate]	32.7	24.7	1.57 ± 0.08	0.364 ± 0.034	0.569 ± 0.049	1.47 ± 0.08	0.375 ± 0.035	0.552 ± 0.048	1.58 ± 0.09	0.4 ± 0.037	0.632 ± 0.055	1.53 ± 0.08	0.357 ± 0.033	0.546 ± 0.047	not detected	GA, TF, TF3G, and TF3’G	increased	increased	702 ± 69.4	580 ± 83.9	transport amount, absorption peak (Caco-2 cell monolayers; apical to basolateral, 200 μM, at 2 h): 2.44 ± 0.23 nmol; transport amount, secretion peak (Caco-2 cell monolayers; basolateral to apical, 200 μM, at 2 h): 3.83 ± 0.33 nmol; efflux ratio at 2 h, 200 μM ([1]; Caco-2, with 100 μM MK-571 (MRP1, MRP2, MRP3 inhibitor), + 100 μM MK-571 (MRP1, MRP2, MRP3 inhibitor)): 1.35 ± 0.07; Papp A→B at 2 h, 200 μM ([1]; Caco-2, with 100 μM MK-571 (MRP1, MRP2, MRP3 inhibitor), absorptive transport, + 100 μM MK-571 (MRP1, MRP2, MRP3 inhibitor)): 0.389 ± 0.036 ×10⁻⁶ cm/s; Papp B→A at 2 h, 200 μM ([1]; Caco-2, with 100 μM MK-571 (MRP1, MRP2, MRP3 inhibitor), secretory transport, + 100 μM MK-571 (MRP1, MRP2, MRP3 inhibitor)): 0.524 ± 0.046 ×10⁻⁶ cm/s; IC50 (Caco-2 cells; + MK-571): 373 ± 38.8 µM; IC50 (Caco-2 cells; + VEP): 509 ± 40.6 µM; IC50 (Caco-2 cells; [17]): 580 ± 34.7 µM
